Assay results reported in patent US20240334932A1, “POLYMORPHS HAVING PESTICIDAL ACTIVITY” (CORTEVA AGRISCIENCE LLC, priority 2021, published 2024).

Columns and labels:
[1] = Dissolution in hexane (anti-solvent); type: physicochemical
[2] = tested on: adult sweet potato whitefly, B. tabaci; assay: Knock-down study, treated glass vial bioassay, hexane anti-solvent experiment (Example 13B); type: in vivo; details: for Effect on B. tabaci behavior compared with the amorphous oil: hexane; for Trt Least Squares Means (proportion scale) Mean: proportion of insects above the 2 cm line: hexane anti-solvent suspension, repeated measures 15-180 min, GLMM
Experimental: In this study, the effect of Compound 1 on the behavior of adult sweet potato whitefly, B. tabaci was evaluated. In general, different forms of Compound 1 (either inventive Polymorph form A, inventive Polymorph form B, or non-crystalline Compound 1, amorphous oil) were applied to the inside of glass vials and adult B. tabaci were transferred into treated vials, exposing them to Compound 1 via contact with the treated glass surface. To quantify the knock-down effect reported previously (Lee et. al. 2013), a line was scribed 2 cm above the bottom of the treated vials and the number of B. tabaci above the 2 cm line were recorded the first three hours following initial exposure. […] This study characterized the effect of Compound 1, Polymorph A and Compound 1, Polymorph B on adult B. tabaci whitefly behavior using a common treated glass vial bioassay to expose the test insects through direct contact (Busvine 1971), and compared those effects in direct head-to-head comparison with non-cystalline Compound 1. Test compounds were either dissolved in acetone (Example 11A) or suspended in a volatile anti-solvent (hexane) (Example 11B), and then evenly coated on the inside of a glass vial using a laboratory-roller. In this experiment, three forms of Compound 1 (Polymorph form A, Polymorph form B, and non-crystalline, amorphous oil) were evaluated for their effect on B. tabaci behavior, polymorph A, polymorph B and an amorphous oil. The samples of Polymorph form A and Polymorph form B were finely milled as described in Example 12. The experimental design of the hexane experiment, including rates (25, 2.5, and 0.25 g/ha), replication (three replications per treatment), and preparation of the treatment suspension was similar to the process described for Example 13A. However, hexane was used instead of acetone. […] Following sonication, samples were again mixed using a vortex mixer immediately before transferring 151 μl of each stock suspension to 11.85 mL of hexane to create the treatment suspension for the 25 g/ha rate (resulting in 0.25 μg/cm^2). The 25 g/ha treatment suspension was serially diluted ten-fold, two times to generate treatment suspensions for the 2.5 and 0.25 g/ha rates. 3 mL of each treatment suspension was transferred into the 11-dram vials and the vials were placed on a laboratory tube roller and rotated at room temperature until the hexane had fully evaporated, leaving an even coating of Compound 1 particles on the inside of the vials. The solvent blank vials were treated with 3 mL of hexane. Following treatment, the vials were stored, infested with approximately 117.4, 47-219 (Mean, min-max) adult B. tabaci, and evaluated as described in the acetone experiment. For each trial and rate, the proportion of insects above the 2 cm line was analyzed with a generalized linear mixed model (GLMM) for repeated measures with binomial response and logit link function (Stroup, 2012). The use of the generalized linear model with binomial distribution for the response, instead of the linear model with normal distribution (ANOVA), allows the correct use of the distributional assumptions and actual sample size (number of insects) used in the experiments. The model included Treatment, Time point, and the interaction Treatment x Time point as fixed effects and the replicate (experimental unit) as random effect. The correlation between repeated measures was modeled with the compound symmetry covariance matrix. The generalized linear mixed models were estimated with the residual pseudo-likelihood method, and the means of the treatment proportions were compared with Tukey's tests (α=0.05) (Stroup 2012). Statistical analyses were performed with SAS Proc GLIMMIX (SAS Software, Version 9.4, SAS Institute Inc., Cary, NC).

[3] = Air milling of polymorphs, PXRD before and after (Example 12); type: physicochemical; details: Jet Mill to d(0.5)<6 μm and d(0.9)<15 μm
Experimental: Compound 1, Polymorph A and Compound 1, Polymorph B samples were air milled separately with Jet Mill until particle size of d (0.5)<6 μm and d (0.9)<15 μm. Powder X-Ray Diffraction (PXRD) was conducted on the samples before and after the air milling process.

[4] = tested on: adult sweet potato whitefly, B. tabaci; assay: Knock-down study, treated glass vial bioassay, acetone experiment (Example 13A); type: in vivo, B. tabaci (Middle East Asia Minor1 (MEAM1) biotype); details: for Effect on B. tabaci behavior compared with the amorphous oil: acetone; for Trt Least Squares Means (proportion scale) Mean: proportion of insects above the 2 cm line: applied from acetone, repeated measures 15-180 min, GLMM
Experimental: In this study, the effect of Compound 1 on the behavior of adult sweet potato whitefly, B. tabaci was evaluated. In general, different forms of Compound 1 (either inventive Polymorph form A, inventive Polymorph form B, or non-crystalline Compound 1, amorphous oil) were applied to the inside of glass vials and adult B. tabaci were transferred into treated vials, exposing them to Compound 1 via contact with the treated glass surface. To quantify the knock-down effect reported previously (Lee et. al. 2013), a line was scribed 2 cm above the bottom of the treated vials and the number of B. tabaci above the 2 cm line were recorded the first three hours following initial exposure.
This study characterized the effect of Compound 1, Polymorph A and Compound 1, Polymorph B on adult B. tabaci whitefly behavior using a common treated glass vial bioassay to expose the test insects through direct contact (Busvine 1971), and compared those effects in direct head-to-head comparison with non-cystalline Compound 1. Test compounds were either dissolved in acetone (Example 11A) or suspended in a volatile anti-solvent (hexane) (Example 11B), and then evenly coated on the inside of a glass vial using a laboratory-roller.
In this experiment, two forms of Compound 1 (polymorph form B and an amorphous oil) were evaluated for their effect on B. tabaci behavior. Three application rates were evaluated for each form of Compound 1 (25 g/ha, 2.5 g/ha,and 0.25 g/ha), in addition to a solvent blank control. Each treatment and the control were replicated three times. Compound 1 samples were dissolved in acetone and were coated on the inside of a 11-dram screw-top glass vial (Fisherbrand 03-339-21N) (Fisher Scientific, Hampton, NH). […] To treat the vials, a stock solution of each sample was first prepared by dissolving 1 mg of Compound 1 sample (either polymorph form B or an amorphous oil) in 2 ml of acetone. The stock solution was agitated using a laboratory vortex mixer to ensure complete mixture of the solution. 151 μL of each stock solution was added to 11.85 mL of acetone to create the treatment solution for the 25 g/ha rate (resulting in 0.25 μg/cm^2). The 25 g/ha treatment solution was serially diluted ten-fold, two times to generate treatment solutions for the 2.5 and 0.25 g/ha rates. 3 mL of each treatment solution was transferred into the 11-dram vials and the vials were placed on a laboratory tube roller and rotated at room temperature until the acetone had fully evaporated, leaving a coating of Compound 1 on the inside of the vials. The solvent blank vials were treated with 3 mL of acetone. After treatment, the vials were left open in a fume hood overnight at room temperature in preparation for testing the following day. Mixed-sex adult B. tabaci whiteflies (Middle East Asia Minor1 (MEAM1) biotype) were collected from a susceptible colony maintained at Corteva Agriscience (Indianapolis, IN). The adult B. tabaci were anesthetized with CO2 and approximately 66.5, 32-102 (Mean, min-max) were introduced into each of the treated vials and their behavior recorded. To evaluate B. tabaci behavior, a line was scribed 2 cm above the bottom of the vial and the number of individuals above the line were recorded at 15, 30, 45, 60, 90, 120, 150, and 180 min after introduction. Following completion of the experiment, the insects were devitalized by freezing at −30° C. for 72 h after which the total number of insects in each vial was recorded. The percentage of B. tabaci above the 2 cm line was calculated for each rate and was used to graph the effect of Compound 1 on whiteflies over time.
For each trial and rate, the proportion of insects above the 2 cm line was analyzed with a generalized linear mixed model (GLMM) for repeated measures with binomial response and logit link function (Stroup, 2012). […]

Row | Solubility in hexane [1] | Polymorphic form after the air milling process (PXRD) [3] | SMILES | Effect on B. tabaci behavior compared with the amorphous oil ([2]; 0.25 g/ha) | Trt Least Squares Means (proportion scale) Mean: proportion of insects above the 2 cm line ([2]; 0.25 g/ha) | Effect on B. tabaci behavior compared with the amorphous oil ([2]; 2.5 g/ha) | Trt Least Squares Means (proportion scale) Mean: proportion of insects above the 2 cm line ([2]; 2.5 g/ha) | Effect on B. tabaci behavior compared with the amorphous oil ([2]; 25 g/ha) | Trt Least Squares Means (proportion scale) Mean: proportion of insects above the 2 cm line ([2]; 25 g/ha) | Effect on B. tabaci behavior compared with the amorphous oil ([4]; 0.25 g/ha) | Trt Least Squares Means (proportion scale) Mean: proportion of insects above the 2 cm line ([4]; 0.25 g/ha) | Effect on B. tabaci behavior compared with the amorphous oil ([4]; 2.5 g/ha) | Trt Least Squares Means (proportion scale) Mean: proportion of insects above the 2 cm line ([4]; 2.5 g/ha) | Effect on B. tabaci behavior compared with the amorphous oil ([4]; 25 g/ha) | Trt Least Squares Means (proportion scale) Mean: proportion of insects above the 2 cm line ([4]; 25 g/ha)
1 | does not readily dissolve | – | CCN(C(=O)CCS(C)(=O)=O)c1sc(-c2cccnc2)nc1Cl [Compound 1, N-[4-chloro-2-(pyridin-3-yl)-1,3-thiazol-5-yl]-N-ethyl-3-(methylsulfonyl) propanamide] | – | – | – | – | – | – | – | – | – | – | – | –
2 | – | unchanged | CCN(C(=O)CCS(C)(=O)=O)c1sc(-c2cccnc2)nc1Cl [Polymorph A, N-[4-chloro-2-(pyridin-3-yl)-1,3-thiazol-5-yl]-N-ethyl-3-(methylsulfonyl) propanamide] | more negatively affected than those exposed to the amorphous oil | 0.342 | significantly affected when compared directly to the amorphous oil | 0.080 | not a difference in the effect | 0.015 | – | – | – | – | – | –
3 | – | unchanged | CCN(C(=O)CCS(C)(=O)=O)c1sc(-c2cccnc2)nc1Cl [Polymorph B, N-[4-chloro-2-(pyridin-3-yl)-1,3-thiazol-5-yl]-N-ethyl-3-(methylsulfonyl) propanamide] | more negatively affected than those exposed to the amorphous oil | 0.345 | significantly affected when compared directly to the amorphous oil | 0.079 | not a difference in the effect | 0.013 | not a difference in the effect | 0.502 | more affected than insects exposed to the amorphous oil | 0.156 | no difference in the effect | 0.115
4 | – | – | CCN(C(=O)CCS(C)(=O)=O)c1sc(-c2cccnc2)nc1Cl [amorphous oil, N-[4-chloro-2-(pyridin-3-yl)-1,3-thiazol-5-yl]-N-ethyl-3-(methylsulfonyl) propanamide, reference compound] | – | 0.601 | – | 0.453 | – | 0.029 | – | 0.295 | – | 0.326 | – | 0.167
